Test results: US11691984B2, “Compounds and methods for DCAF-mediated protein degradation” (The Scripps Research Institute, priority 2018, dated 2023)

Key:
DCAF16 = target: T1, DCAF16 (Homo sapiens, UniProt Q9NXF7); experiment: Competitive ABPP (TMT) of cysteine engagement in endogenous DCAF16; type: cell-based; details: HEK293T, 1.5 h
T1 construct: endogenously expressed DCAF16 in HEK293T cells; endogenous in cells; host or cells: HEK293T
Description: HEK293T cells were treated with DMSO (four biological replicates), 2 μM KB02-SLF (three biological replicates) or 20 μM KB02-JQ1 (three biological replicates) for 1.5 h (ten samples in total). Cells were collected, washed once with PBS and lysed in PBS by sonication (40%, 4, 20 pulses). Samples were clarified by centrifugation for 10 min at 8,000 g. Lysate was adjusted to 1.0 mg/mL in 500 μL. Samples were labeled with 100 μM iodoacetamide alkyne (5 μL of 10 mM stock in DMSO) at room temperature for 1 hour, conjugated by CuACC to desthiobiotin azide (10 μL of 5 mM stock in DMSO, final concentration=100 tris(2-carboxyethyl)phosphine hydrochloride (TCEP, 10 μL of 50 mM stock in H2O, final concentration=1 mM), TBTA (30 μL of 1.7 mM stock in 4:1 tBuOH:DMSO, final concentration=100 μM) and CuSO4 (10 μL of 50 mM stock in H2O, final concentration=1 mM). The samples were allowed to react for 1 hour at room temperature. Proteins were precipitated by adding 3.5 mL of H2O, 4 mL of methanol and 1.5 mL of chloroform, followed by centrifugation at 5,000 g for 15 min (4° C.). After aspirating the top layer, the protein pellets with bottom layer were washed with 8 mL cold methanol by centrifugation at 5,000 g for 15 min (4° C.). Protein pellets were resuspended in 90 μL of buffer containing 9 M urea, 10 mM DTT and 50 mM tetramethylammonium bicarbonate (pH 8.5), sonicated (40%, 4, 5 pulses) and heated at 65° C. for 20 min. Samples were cooled to room temperature and alkylated with 50 mM iodoacetamide (10 μL of 500 mM stock in H2O) at 37° C. for 30 minutes. Samples were diluted with 350 μL of 50 mM tetramethylammonium bicarbonate (pH 8.5) and digested with 2 μg trypsin at 37° C. for 4 hours. 40 μL of streptavidin-agarose beads slurry was washed in immunoprecipitation (IP) washing buffer and added to each sample. Beads with peptide samples were rotated for 1 hour at room temperature, filtered off by micro Bio-Spin chromatography column (Bio-Rad) and washed with 1 mL of IP washing buffer (three times), 1 mL of PBS (three times) and 1 mL of H2O. Peptides were eluted by adding 300 μL of 50% acetonitrile with 0.1% of formic acid and dried in vacuum concentrator.
Peptides were resuspended in 100 μL of 30% acetonitrile in 200 mM EPPS (pH 8) and labeled with TMT10plex isobaric reagent following the manufacturer's instructions. 0.15% of hydroxylamine (3 μL of 5% stock in H2O) was added to each sample to quench the reaction (incubate for 15 minutes). After adding 5 μL of formic acid to each sample, 10 peptide samples were combined and dried in vacuum concentrator. […]
(§1) The samples were analyzed in Orbitrap Fusion Tribrid mass spectrometer (Thermo Scientific) coupled to UltiMate 3000 HPLC system (Thermo Scientific). […]

ACAT1 = target: T2, ACAT1 (Homo sapiens, UniProt P24752); experiment: Competitive ABPP (TMT) of cysteine engagement in ACAT1; type: cell-based; details: HEK293T, 1.5 h
T2 construct: endogenous in cells; host or cells: HEK293T
T2 sequence (P24752 34-427): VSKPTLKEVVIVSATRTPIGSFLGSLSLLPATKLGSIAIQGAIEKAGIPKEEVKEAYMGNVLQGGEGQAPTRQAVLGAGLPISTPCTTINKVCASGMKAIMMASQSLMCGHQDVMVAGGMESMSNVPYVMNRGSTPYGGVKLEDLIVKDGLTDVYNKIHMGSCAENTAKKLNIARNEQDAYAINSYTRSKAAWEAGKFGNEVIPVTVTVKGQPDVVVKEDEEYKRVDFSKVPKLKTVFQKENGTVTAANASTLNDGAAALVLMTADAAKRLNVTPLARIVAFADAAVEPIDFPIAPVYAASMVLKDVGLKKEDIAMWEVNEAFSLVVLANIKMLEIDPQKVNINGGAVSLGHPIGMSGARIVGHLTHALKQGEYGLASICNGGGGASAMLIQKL
Description: HEK293T cells were treated with DMSO (four biological replicates), 2 μM KB02-SLF (three biological replicates) or 20 μM KB02-JQ1 (three biological replicates) for 1.5 h (ten samples in total). Cells were collected, washed once with PBS and lysed in PBS by sonication (40%, 4, 20 pulses). Samples were clarified by centrifugation for 10 min at 8,000 g. Lysate was adjusted to 1.0 mg/mL in 500 μL. Samples were labeled with 100 μM iodoacetamide alkyne (5 μL of 10 mM stock in DMSO) at room temperature for 1 hour, conjugated by CuACC to desthiobiotin azide (10 μL of 5 mM stock in DMSO, final concentration=100 tris(2-carboxyethyl)phosphine hydrochloride (TCEP, 10 μL of 50 mM stock in H2O, final concentration=1 mM), TBTA (30 μL of 1.7 mM stock in 4:1 tBuOH:DMSO, final concentration=100 μM) and CuSO4 (10 μL of 50 mM stock in H2O, final concentration=1 mM). The samples were allowed to react for 1 hour at room temperature. Proteins were precipitated by adding 3.5 mL of H2O, 4 mL of methanol and 1.5 mL of chloroform, followed by centrifugation at 5,000 g for 15 min (4° C.). After aspirating the top layer, the protein pellets with bottom layer were washed with 8 mL cold methanol by centrifugation at 5,000 g for 15 min (4° C.). […]
as §1

Row | SMILES | engagement of DCAF16 C119 (DCAF16; KB02-JQ1 20 μM) | engagement of DCAF16 peptide (aa 168-184) containing cysteines 173 and 177-179 (DCAF16; KB02-JQ1 20 μM) [%] | engagement of ACAT1 C126 (ACAT1; KB02-JQ1 20 μM) | engagement of DCAF16 C119 (DCAF16; KB02-SLF 2 μM) | engagement of DCAF16 peptide (aa 168-184) containing cysteines 173 and 177-179 (DCAF16; KB02-SLF 2 μM) [%] | engagement of ACAT1 C126 (ACAT1; KB02-SLF 2 μM)
1 | Cc1sc2c(c1C)C(c1ccc(Cl)cc1)=N[C@@H](CC(=O)NCCOCCOCCNC(=O)COc1ccc3c(c1)CCCN3C(=O)CCl)c1nnc(C)n1-2 [KB02-JQ1, (S)-2-((1-(2-chloroacetyl)-1,2,3,4-tetrahydroquinolin-6-yl)oxy)-N-(2-(2-(2-(2-(4-(4-chlorophenyl)-2,3,9-trimethyl-6H-thieno[3,2-f][1,2,4]triazolo[4,3-a][1,4]diazepin-6-yl)acetamido)ethoxy)ethoxy)ethyl)acetamide] | no evidence of engagement | 40 | fully engaged |  |  | 
2 | CCC(C)(C)C(=O)C(=O)N1CCCC[C@H]1C(=O)O[C@H](CCc1ccc(OC)c(OC)c1)c1cccc(NC(=O)CCOCCOCCNC(=O)COc2ccc3c(c2)CCCN3C(=O)CCl)c1 [KB02-SLF, (R)-1-(3-(3-(2-(2-(2-((1-(2-chloroacetyl)-1,2,3,4-tetrahydroquinolin-6-yl)oxy)acetamido)ethoxy)ethoxy)propanamido)phenyl)-3-(3,4-dimethoxyphenyl)propyl (S)-1-(3,3-dimethyl-2-oxopentanoyl)piperidine-2-carboxylate] |  |  |  | no evidence of engagement | ~10 | fully engaged
